Experimental data reported in US8562947B2, “Oxidized avidin with high residency time in the treated tissues” (Sigma-Tau Industrie Farmaceutiche Riunite S.p.A., priority 2007, dated 2013).
Values joined by “and” are separate entries in the source; they are usually repeats but may differ in a detail not shown here. Equal values may be shown once. Each block holds one substance with its values, some of them ahead of it.

What was measured:
[1] = BiotinDOTA (ST2210) binding capacity by HABA assay; details: WTavidin value assumed as 100%
[2] = Isothermal Titration Calorimetry of avidin/ST2210 interaction; type: binding; details: for KA / N (stoichiometry): ITC with ST2210; for association constants (KA): ITC with ST2210, text
[3] = Thermal stability and conformational changes by circular dichroism spectroscopy (melting curves); type: physicochemical; details: for thermal denaturation reversibility: heated without biotin; for p (slope of sigmoidal curve) / Tm: without biotin; for Tm: dichroic signal at 225 nm, 25-95° C.
Experimental: Thermal stability and conformational changes were determined by circular dichroism spectroscopy before and after oxidation, with and without 4 equivalents of biotin. Melting curves were recorded by following the decrease of dichroic signal at 225 nm in the temperature range 25-95° C. The point of inflection and slope (p) of sigmoidal curves were calculated by means of Boltzman fitting model of the scientific graphing and data analysis Origin® 7.0 software and represent the point of transition through the denatured condition.
For each specific compound, the thermal stability corresponds to the temperature which matches the point of inflection of the corresponding curve registered in the temperature range 25-95° C.

[4] = Long term tissue permanence of wild type and oxidized avidins; type: in vivo, Balb/c nu/nu mice; details: referred to the 1 hour level; treated hind limb
[5] = set-up: species or system Balb/c nu/nu mice; details: mouse, in vivo
Experimental: The animal model of intraoperative avidination for radionuclide treatment IART® was set up by performing a surgical cut in one hind limb of a mouse, infiltrating radiolabelled avidin in the surgical margins and surrounding tissues and measuring radioactivity in the treated limb at different time points after administration. In a parallel group of mice, the radioactive avidin was infiltrated to the limb without surgery.
The amount of radioactivity, after 1 and 24 hours from administration was similar in the surgically treated and not surgically treated animals. Therefore, further studies were performed by infiltrating avidin without surgery. […] Labelled avidin was separated from free iodine by chromatography on a PD-10 column (Amersham Biosciences, Uppsala, Sweden) and oxidized as previously described in the Example 1 without any prior HABA protection.
Mice were sacrificed 1, 24 or 48 hours after ^111In-ST2210 administration and the treated and controlateral limbs, kidney, liver and blood samples were collected and counted in a gamma-counter (Camberra Packard, Schwadorf, Austria).

[6] = Permanence in rabbit mammary tissue; type: in vivo, rabbits; details: for % ID/breast (+/− SD) at 24 h: rabbit mammary tissue; for amount found in the mammary tissue: rabbit, after 24 hours
Experimental: OXavidinHABA was evaluated for its permanence in the mammary tissue in comparison to WTavidin. […] The animals were sacrificed after 24 h from injection and tissue samples of the injected area of about 200 mg were collected and counted in a gamma counter as previously described. The data are the average (+/−SD) of 3 determinations.

[7] = type: in vivo, Balb/c nu/nu mice; details: for distribution of 111In-ST2210 in non target organs: mouse, in vivo
Experimental: After 48 hours from injection, the animals received intravenously (i.v.) 5 μg of ^111In-ST2210.
Groups of 5 animals were sacrificed at the indicated time points and radioactivity in the treated limb as well as in other non target organs measured by gamma counter (Camberra Packard, Schwadorf Austria).
One group of animals received a first intravenous dose of 5 μg of cold ST2210 24 hours prior to a second one of 5 μg ^111In-ST2210. The former occurred 24 hours after avidination. The animals were sacrificed 2 hours after i.v. injection of radiolabelled-ST2210 and radioactivity in the treated limb was measured by gamma counter as above.

[8] = Tissue localization in cryosections of avidinated muscle (immunofluorescence, haematoxylin/eosin); type: in vivo, Balb/c nude mice; details: 24 hrs from injection
Experimental: OXavidinHABA was evaluated for tissue localization in comparison to WTavidin in cryosections of avidinated tissues after intramuscular injection into one hind limb of Balb/c nude mice (Harlan, Udine Italy). The muscles were excised 24 hrs after treatment and serial cryosections were prepared from each sample. Each slide was stained with haematoxylin/eosin to evaluate the tissue morphology or incubated with a mouse anti avidin antibody (A5680, Sigma Aldrich, Italy) followed by anti mouse Alexa fluor 488 (Invitrogen, Milan Italy). Finally, slides were mounted with coverslips and observed under microscope.

[9] = set-up: species or system Balb/c mice; details: mouse, in vivo
Source text: ^125I-OXavidinHABA was saturated in vitro with ST2210, purified from unbound ST2210 by ultrafiltration and intramuscularly injected into one hind limb of Balb/c mice. The same protocol was followed with regard to WTavidin.

[10] = mouse, in vivo
[11] = tested on: tumoral lesions of the mammary gland of NeuT mice; assay: Therapeutic efficacy of pre-targeted brachytherapy in NeuT transgenic mice (whole mount analysis of mammary gland); type: in vivo, Balb-NeuT mice; details: compared to vehicle or WTavidin-treated breast; 90Y-ST2210 800 μCi
Experimental: Two animals/group were sacrificed 3 hours after administration and both breasts IV and III excised and counted in a gamma counter as above. Non target organs were also collected weighted and counted. Data are expressed as the % ID/g of tissue. The effect of this pre-targeted brachytherapy on the tumoral lesions were evaluated by whole mount analysis of the mammary gland as described previously (De Giovanni C., et al., Cancer Research, 2004, 64, 4001).

[12] = Tissue permanence of wild type, pegylated or oxidized avidins; type: in vivo, C57Bl/6 mice; details: 24 hours after i.m. injection in hind limb
Experimental: Radioactivity in the treated limb was measured by gamma counter (Camberra Packard, Schwadorf Austria).
Chemically modified avidins were previously described by other groups with the intent of improving the avidin half-life in circulation (Caliceti P., et al., J. Control. Release, 2002, 83, 97; Salmaso S., et al., Int. J. Pharm., 2007, 340, 20). […] After 24 hours from injection, the animals were sacrificed and radioactivity in the treated limb was measured by gamma counter (Camberra Packard, Schwadorf Austria).

Substance: OXavidin 1 mM NaIO4: avidin oxidized with 1 mM NaIO4 without HABA
BiotinDOTA binding % ± SD [1]: 77.2 ± 0.9%

Substance: OXavidin 40 mM NaIO4: avidin oxidized with 40 mM NaIO4 without HABA
BiotinDOTA binding % ± SD [1]: 44.5 ± 0.9%

Substance: OXavidin: avidin oxidized with sodium periodate without prior HABA protection; NaIO4 concentration not stated at these places
thermal denaturation reversibility [3]: irreversible
p (slope of sigmoidal curve) [3]: 8.9 and 8.9 ± 0.1
Tm [3]: 74.3 °C and 74.3 ± 0.1 °C
tissue half life [4]: about 2 weeks
stoichiometry of interaction [2]: 1.2 molecules of ST2210 per molecule
KA [2]: 645000 M⁻¹
amount in the treated limb compared to native avidin [5]: more than double
distribution in the non target organs (blood, kidney, liver) [5]: lower distribution

Substance: OXavidinHABA 1 mM NaIO4: avidin oxidized with 1 mM NaIO4 in presence of 1 mM HABA
KA [2]: 4.58e+06 ± 249000 M⁻¹
N (stoichiometry) [2]: 2.5 ± 0.008
BiotinDOTA binding % ± SD [1]: 99.0 ± 0.2%

Substance: OXavidinHABA 10 mM NaIO4: avidin oxidized with 10 mM NaIO4 in presence of 1 mM HABA
KA [2]: 3.34e+06 ± 212000 M⁻¹
N (stoichiometry) [2]: 1.7 ± 0.008
BiotinDOTA binding % ± SD [1]: 86.3%
BiotinDOTA binding % ± SD ([1]; listed as OXavidinHABA 10 mM NaIO4 + 1 mM HABA): 86.3 ± 1.6 %

Substance: OXavidinHABA 40 mM NaIO4 + 1 mM HABA: avidin oxidized with 40 mM NaIO4 in presence of 1 mM HABA
BiotinDOTA binding % ± SD [1]: 73.0 ± 0.6%

Substance: OXavidinHABA: HABA-saturated avidin oxidized with sodium periodate; NaIO4 concentration not stated at these places
thermal denaturation reversibility [3]: irreversible
p (slope of sigmoidal curve) [3]: 11.2 and 11.2 ± 0.4
Tm [3]: 78.1 °C and 78.1 ± 0.3 °C
% ID/breast (+/− SD) at 24 h [6]: 65.8 (0.08) % ID/breast
amount found in the mammary tissue [6]: 65.8 % ID
specific captation of 111In-ST2210 in treated tissue compared with WTavidin ([7]; 2 hours from i.v. injection, 48 hours after avidination): much higher
captation of second dose of 111In-ST2210 in treated limb ([7]; after a first dose of cold ST2210 24 hours before): comparable to that obtained with the single dose
distribution of 111In-ST2210 in non target organs [7]: similar
haematoxylin/eosin staining of muscle [8]: no histological abnormalities
tissue half life [4]: about 2 weeks
amount in the treated limb [9]: 17 % ID/100 mg
residence in the brain [10]: about 12.65±6.59 % ID/100 mg of tissue
stoichiometry of interaction [2]: 1.7 molecules of ST2210 per molecule
association constants (KA) [2]: 2.5e+06 M⁻¹
effect on cancer lesions of the mammary gland [11]: significant reduction of cancer lesions
tissue permanence compared to WTavidin [12]: increase of tissue permanence

Substance: PEGavidin: PEG-conjugated avidin prepared according to Caliceti [reference compound]
tissue permanence compared to WTavidin [12]: did not affect the tissue permanence

Substance: WTavidin: wild type avidin, glycoprotein of about 68 kDa present in egg white, high affinity for biotin [reference compound]
p (slope of sigmoidal curve) [3]: 14.7
Tm [3]: 79.0 °C
Tm ([3]; listed as Avidin): 79.0 ± 0.1 °C
Tm ([3]; listed as avidin): 79.0 °C
p (slope of sigmoidal curve) ([3]; listed as Avidin): 14.7 ± 0.3
p (slope of sigmoidal curve) ([3]; listed as avidin): 14.7
% ID/breast (+/− SD) at 24 h [6]: 8.5 (1.13) % ID/breast
amount found in the mammary tissue [6]: 8.5 % ID
distribution of 111In-ST2210 in non target organs [7]: similar
haematoxylin/eosin staining of muscle [8]: no histological abnormalities
tissue half life [4]: 2 h
amount in the treated limb [9]: < 0.5 % ID/100 mg
stoichiometry of interaction [2]: 3.0 molecules of ST2210 per molecule
KA [2]: 3.45e+06 ± 307000 M⁻¹
N (stoichiometry) [2]: 3.0 ± 0.016
association constants (KA) [2]: 3.45e+06 M⁻¹
BiotinDOTA binding % ± SD [1]: 100^@ %
distribution in the non target organs (blood, kidney, liver) [5]: higher distribution

Second part, led by results:

BiotinDOTA binding % ± SD [1]: 55.7 ± 2.2%
Substance: OXavidin 5 mM NaIO4: avidin oxidized with 5 mM NaIO4 without HABA

BiotinDOTA binding % ± SD [1]: 50.9% and 50.9 ± 2.4%
Substance: OXavidin 10 mM NaIO4: avidin oxidized with 10 mM NaIO4 without HABA

BiotinDOTA binding % ± SD [1]: 49.1% and 49.1 ± 2.1%
Substance: OXavidin 20 mM NaIO4: avidin oxidized with 20 mM NaIO4 without HABA
KA [2]: 645000 ± 56900 M⁻¹
N (stoichiometry) [2]: 1.2 ± 0.012

BiotinDOTA binding % ± SD [1]: 95.0 ± 1.7%
Substance: OXavidinHABA 5 mM NaIO4: avidin oxidized with 5 mM NaIO4 in presence of 1 mM HABA
KA [2]: 5.42e+06 ± 590000 M⁻¹
N (stoichiometry) [2]: 1.9 ± 0.012

BiotinDOTA binding % ± SD [1]: 81.4%
BiotinDOTA binding % ± SD ([1]; listed as OXavidinHABA 20 mM NaIO4 + 1 mM HABA): 81.4 ± 1.0 %
Substance: OXavidinHABA 20 mM NaIO4: avidin oxidized with 20 mM NaIO4 in presence of 1 mM HABA
KA [2]: 2.5e+06 ± 132000 M⁻¹
N (stoichiometry) [2]: 1.5 ± 0.007
